Laboratory results from PubChem BioAssay AID342 (DTP/NCI, 2004).
Where “and” joins values, the source holds several entries; their conditions need not be identical. Equal entries are not always repeated.

Tested on: Swiss mice, Sarcoma 180 sc, mean tumor weight T/C
Assay: NCI In Vivo Anticancer Drug Screen. Data for tumor model Sarcoma 180 (subcutaneous) in Swiss mice
Settings: endpoint: mean tumor weight, higher = larger tumour
Procedure, shortened: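 Transplantable tumors were established in mice, compound was given, then survival or tumor size was recorded. The treated value was divided by the vehicle-control value.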

[1] = dose: 125.0 mg/kg/injection, schedule: Q01DX007 (ip), vehicle: saline
[2] = dose: 200.0 mg/kg/injection, schedule: Q01DX007 (ip), vehicle: saline
[3] = dose: 40.0 mg/kg/injection, schedule: Q01DX007 (ip), vehicle: carboxymethylcellulose (CMC)
[4] = dose: 62.0 mg/kg/injection, schedule: Q01DX007 (ip), vehicle: carboxymethylcellulose (CMC)
[5] = dose: 16.0 mg/kg/injection, schedule: Q01DX007 (ip), vehicle: saline

Which results are given for `CCCCN(C)N=Nc1ccc(CCCC(=O)OCC)cc1`?
T/C [1]: 62 % of control; T/C [2]: 40 % of control

Which results are given for `C/C=C(/C)C(=O)O[C@H]1CCN2CC=C(COC(=O)[C@@](O)([C@H](C)OC)C(C)(C)O)[C@H]12`?
T/C (dose: 12.0 mg/kg/injection, schedule: Q01DX007 (ip), vehicle: carboxymethylcellulose (CMC)): 117 % of control; T/C (dose: 18.0 mg/kg/injection, schedule: Q01DX007 (ip), vehicle: carboxymethylcellulose (CMC)): 73 % of control; T/C (dose: 26.6 mg/kg/injection, schedule: Q01DX007 (ip), vehicle: carboxymethylcellulose (CMC)): 48 % of control; T/C [3]: 40 % of control

How did the T/C (dose: 12.5 mg/kg/injection, schedule: Q#A X014 (ip), vehicle: saline) turn out when `[N-]=[N+]=CC(=O)CCC(N)C(=O)O` (configuration not stated) was run?
Its T/C is 45 % of control and 59 % of control.

What about the T/C (dose: 25.0 mg/kg/injection, schedule: Q#A X014 (ip), vehicle: saline) of the same compound?
The T/C was 6 % of control and 17 % of control.

And the T/C (dose: 25.0 micrograms/kg/injection, schedule: Q01DX007 (ip), vehicle: carboxymethylcellulose (CMC))?
The T/C was 70 % of control.

And the T/C (dose: 50.0 micrograms/kg/injection, schedule: Q01DX007 (ip), vehicle: carboxymethylcellulose (CMC))?
Its T/C is 51 % of control.

And the T/C (dose: 100.0 micrograms/kg/injection, schedule: Q01DX007 (ip), vehicle: carboxymethylcellulose (CMC))?
Its T/C is 8 % of control.

What does the source list for `CN1CCC23c4c5ccc(O)c4OC2C(O)C=CC3C1C5` (configuration not stated)?
T/C (dose: 62.0 mg/kg/injection, schedule: Q01DX007 (ip), vehicle: saline): 90 % of control; T/C [1]: 99 % of control; T/C (dose: 250.0 mg/kg/injection, schedule: Q01DX007 (ip), vehicle: saline): 48 % of control

What does the source list for `CC[C@](C)(O)C(=O)O[C@H]1C(=O)O[C@@H]2C[C@H]3C(C)=C[C@H](O)[C@@H](O)[C@]3(C)[C@H]3[C@@]4(O)OC[C@]32[C@@H]1[C@@H](C)[C@H]4O`?
T/C (dose: 0.5 mg/kg/injection, schedule: Q01DX007 (sc), vehicle: olive oil, sesame oil, peanut oil): 60 % of control; T/C (dose: 1.0 mg/kg/injection, schedule: Q01DX007 (sc), vehicle: olive oil, sesame oil, peanut oil): 64 % of control; T/C (dose: 2.0 mg/kg/injection, schedule: Q01DX007 (sc), vehicle: olive oil, sesame oil, peanut oil): 67 % of control; T/C (dose: 4.0 mg/kg/injection, schedule: Q01DX007 (sc), vehicle: olive oil, sesame oil, peanut oil): 77 % of control and 80 % of control; T/C (dose: 6.0 mg/kg/injection, schedule: Q01DX007 (sc), vehicle: olive oil, sesame oil, peanut oil): 97 % of control; T/C (dose: 9.0 mg/kg/injection, schedule: Q01DX007 (sc), vehicle: olive oil, sesame oil, peanut oil): 93 % of control

What does the source list for `CN(C)c1ccc(C(C#N)C(C#N)c2ccccc2)cc1` (configuration not stated)?
T/C (dose: 8.85 mg/kg/injection, schedule: Q#A X014 (ip), vehicle: methylcellulose (MC)): 69 % of control and 84 % of control; T/C (dose: 26.6 mg/kg/injection, schedule: Q#A X014 (ip), vehicle: methylcellulose (MC)): 4 % of control; T/C (dose: 40.0 mg/kg/injection, schedule: Q#A X014 (ip), vehicle: methylcellulose (MC)): 56 % of control

For `CS(C)=O`, which T/C (dose: 1000.0 mg/kg/injection, schedule: Q01DX007 (ip), vehicle: other) is on record?
Its T/C is 71 % of control.

And the T/C (dose: 1000.0 mg/kg/injection, schedule: Q#A X014 (ip), vehicle: other)?
The T/C was 91 % of control.

What about the T/C (dose: 1500.0 mg/kg/injection, schedule: Q01DX007 (ip), vehicle: other) of the same compound?
Its T/C is 84 % of control.

And the T/C (dose: 1500.0 mg/kg/injection, schedule: Q#A X014 (ip), vehicle: other)?
Its T/C is 99 % of control.

What does the source list for `CN(/N=N/N(C)c1ccccc1)c1ccccc1`?
T/C (dose: 7.8 mg/kg/injection, schedule: Q01DX007 (ip), vehicle: carboxymethylcellulose (CMC)): 72 % of control; T/C (dose: 15.6 mg/kg/injection, schedule: Q01DX007 (ip), vehicle: carboxymethylcellulose (CMC)): 62 % of control; T/C (dose: 31.3 mg/kg/injection, schedule: Q01DX007 (ip), vehicle: carboxymethylcellulose (CMC)): 75 % of control; T/C (dose: 62.5 mg/kg/injection, schedule: Q01DX007 (ip), vehicle: carboxymethylcellulose (CMC)): 49 % of control and 74 % of control; T/C (dose: 125.0 mg/kg/injection, schedule: Q01DX007 (ip), vehicle: carboxymethylcellulose (CMC)): 37 % of control

What does the source list for `CC(C)(S)C(N)C(=O)O` (configuration not stated)?
T/C (dose: 500.0 mg/kg/injection, schedule: Q01DX007 (oral), vehicle: saline): 122 % of control; T/C (dose: 1000.0 mg/kg/injection, schedule: Q01DX007 (oral), vehicle: saline): 118 % of control

How did the T/C (dose: 53.0 mg/kg/injection, schedule: Q01DX007 (ip), vehicle: carboxymethylcellulose (CMC)) turn out when `CCCCn1cnc2c(SSc3ncnc4c3ncn4CCCC)ncnc21` was run?
The T/C was 82 % of control.

What about the T/C (dose: 53.0 mg/kg/injection, schedule: Q01DX007 (ip), vehicle: other) of the same compound?
Its T/C is 62 % of control.

What about the T/C (dose: 83.0 mg/kg/injection, schedule: Q01DX007 (ip), vehicle: other) of the same compound?
Its T/C is 65 % of control.

And the T/C (dose: 83.0 mg/kg/injection, schedule: Q01DX007 (ip), vehicle: saline)?
The T/C was 71 % of control.

What about the T/C (dose: 125.0 mg/kg/injection, schedule: Q01DX007 (ip), vehicle: other) of the same compound?
The T/C was 50 % of control.

And the T/C [1]?
Its T/C is 37 % of control.

What about the T/C (dose: 187.0 mg/kg/injection, schedule: Q01DX007 (ip), vehicle: other) of the same compound?
The T/C was 30 % of control.

With `COc1ccc2c(=O)cc(-c3ccccc3)n(C)c2c1` as the compound, how does the T/C (dose: 50.0 mg/kg/injection, schedule: Q01DX007 (ip), vehicle: saline) read?
The T/C was 68 % of control.

What about the T/C (dose: 100.0 mg/kg/injection, schedule: Q01DX007 (ip), vehicle: saline) of the same compound?
The T/C was 110 % of control.

What about the T/C [2] of the same compound?
Its T/C is 109 % of control.

And the T/C (dose: 400.0 mg/kg/injection, schedule: Q01DX007 (ip), vehicle: saline)?
Its T/C is 76 % of control.

For `Nc1nc(SC2CCCCC2)c2[nH]cnc2n1`, which T/C (dose: 120.0 mg/kg/injection, schedule: Q01DX007 (ip), vehicle: carboxymethylcellulose (CMC)) is on record?
The T/C was 89 % of control.

And the T/C (dose: 240.0 mg/kg/injection, schedule: Q01DX007 (ip), vehicle: carboxymethylcellulose (CMC))?
Its T/C is 33 % of control.

Which results are given for `CC(=O)OCC(=O)[C@@]1(O)CC[C@H]2[C@@H]3CCC4=CC(=O)C=C[C@]4(C)[C@@]3(F)[C@@H](O)C[C@@]21C`?
T/C (dose: 20.0 mg/kg/injection, schedule: Q#A X014 (sc), vehicle: steriod suspending solution): 32 % of control; T/C (dose: 30.0 mg/kg/injection, schedule: Q#A X014 (sc), vehicle: steriod suspending solution): 32 % of control; T/C (dose: 45.0 mg/kg/injection, schedule: Q#A X014 (sc), vehicle: steriod suspending solution): 30 % of control; T/C (dose: 67.5 mg/kg/injection, schedule: Q#A X014 (sc), vehicle: steriod suspending solution): 24 % of control and 32 % of control

For `Cc1ncc(CO)c(CNC(=O)N(C)N=O)c1O`, which T/C [4] is on record?
The T/C was 60 % of control.

For `CC1CC(C)C(O)C(C(O)CC2CC(=O)NC(=O)C2)C1` (configuration not stated), which T/C [3] is on record?
The T/C was 84 % of control.

And the T/C [4]?
Its T/C is 55 % of control.

And the T/C (dose: 93.0 mg/kg/injection, schedule: Q01DX007 (ip), vehicle: carboxymethylcellulose (CMC))?
Its T/C is 44 % of control.

Which results are given for `COc1ccc2c3c([nH]c2c1)[C@H]1C[C@H]2[C@H](C[C@@H](O)[C@H](OC)[C@H]2CO)CN1CC3`?
T/C (dose: 0.5 mg/kg/injection, schedule: Q01DX007 (ip), vehicle: saline): 120 % of control; T/C (dose: 1.0 mg/kg/injection, schedule: Q01DX007 (ip), vehicle: saline): 121 % of control; T/C (dose: 2.0 mg/kg/injection, schedule: Q01DX007 (ip), vehicle: saline): 95 % of control; T/C (dose: 4.0 mg/kg/injection, schedule: Q01DX007 (ip), vehicle: saline): 94 % of control; T/C (dose: 8.0 mg/kg/injection, schedule: Q01DX007 (ip), vehicle: saline): 102 % of control; T/C [5]: 77 % of control; T/C (dose: 32.0 mg/kg/injection, schedule: Q01DX007 (ip), vehicle: saline): 102 % of control

Which results are given for `O=C1NC(=O)C2(CCCc3ccc(N(CCCl)CCCl)cc32)N1` (configuration not stated)?
T/C (dose: 16.0 mg/kg/injection, schedule: Q01DX007 (ip), vehicle: other): 70 % of control; T/C [5]: 67 % of control; T/C (dose: 24.0 mg/kg/injection, schedule: Q01DX007 (ip), vehicle: other): 107 % of control; T/C (dose: 24.0 mg/kg/injection, schedule: Q01DX007 (ip), vehicle: saline): 85 % of control; T/C (dose: 36.0 mg/kg/injection, schedule: Q01DX007 (ip), vehicle: other): 61 % of control; T/C (dose: 36.0 mg/kg/injection, schedule: Q01DX007 (ip), vehicle: saline): 75 % of control; T/C (dose: 55.0 mg/kg/injection, schedule: Q01DX007 (ip), vehicle: saline): 52 % of control; T/C [1]: 29 % of control; T/C (dose: 188.0 mg/kg/injection, schedule: Q01DX007 (ip), vehicle: other): 65 % of control; T/C (dose: 282.0 mg/kg/injection, schedule: Q01DX007 (ip), vehicle: other): 80 % of control; T/C (dose: 423.0 mg/kg/injection, schedule: Q01DX007 (ip), vehicle: other): 81 % of control

What does the source list for `Cc1cn(C2OC(CO)C(O)C2O)c(=O)[nH]c1=O` (configuration not stated)?
T/C (dose: 7.5 mg/kg/injection, schedule: Q01DX007 (ip), vehicle: saline): 90 % of control; T/C (dose: 30.0 mg/kg/injection, schedule: Q01DX007 (ip), vehicle: saline): 115 % of control; T/C (dose: 60.0 mg/kg/injection, schedule: Q01DX007 (ip), vehicle: saline): 89 % of control; T/C (dose: 120.0 mg/kg/injection, schedule: Q01DX007 (ip), vehicle: saline): 99 % of control
